Experimental data reported in patent publication US11214803B2, “Modulators of YAP1 expression” (Ionis Pharmaceuticals, Inc., priority 2019, dated 2022).
Strand notation (5' to 3'): a small letter for the sugar, then the base; units joined by * are phosphorothioate-linked, units joined directly phosphodiester-linked; [ ] holds rarer units or linkages, { } end groups; capitals alone tell only the bases. e = 2'-O-(2-methoxyethyl) (MOE); k = constrained ethyl (cEt); [5mC] = 5-methylcytosine; d = 2'-deoxy (DNA)

Key:
Type in all cases: cell-based
Yap1 mRNA [1] = experiment: Dose-dependent inhibition of human Yap1 in A-431 cells (Example 7, 10,000 cells per well, RTS36584); settings: free uptake; for Yap1 mRNA, % UTC: A-431 cells 10,000 cells per well, 48 hours
Procedure: Modified oligonucleotides described in the studies above were tested at various doses in A-431 cells. Cultured A-431 cells at a density of 10,000 cells per well were treated using free uptake with modified oligonucleotides diluted to concentrations described in the tables below. After approximately 48 hours, Yap1 mRNA levels were measured as previously described using the Human Yap1 primer-probe set RTS36584. Yap1 mRNA levels were normalized to total RNA content, as measured by RIBOGREEN®. Results are presented in the tables below as percent control of the amount of Yap1 mRNA relative to untreated control cells (% UTC). IC50s were calculated using a linear regression on a log/linear plot of the data in excel.

Yap1 mRNA [2] = experiment: Dose-dependent inhibition of human Yap1 in A-431 cells (Example 8, 10,000 cells per well, RTS4814); settings: free uptake, approximately 48 hours, RTS4814; for Yap1 mRNA, % UTC: A-431 cells, 10,000 cells per well; for IC50: A-431 cells, linear regression on log/linear plot
How it was run: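 Yap1 mRNA, normalized to RIBOGREEN total RNA and expressed as % untreated control, was read with RTS4814 about 48 h after free-uptake oligonucleotide treatment of A-431 cells at 10,000 cells/well. IC50 derived by linear regression of log/linear data.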

Yap1 mRNA [3] = experiment: Dose-dependent inhibition of human Yap1 in SNU-449 cells (Example 9, RTS36584); settings: free uptake; for % UTC (Yap1 mRNA): approximately 48 hours; for IC50: linear regression on a log/linear plot
How it was run: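 Read-out was Yap1 mRNA (primer-probe RTS36584) normalised to total RNA by RIBOGREEN, given as % of untreated cells, with IC50 fitted by linear regression of log/linear data. Oligonucleotides were dosed by free uptake to SNU-449 cells, 10,000/well, for ~48 h.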

Yap1 mRNA [4] = experiment: Antisense inhibition of human Yap1 in A-431 cells by cEt gapmers, single dose (Example 3, RTS36584); settings: Table 28; Yap1 mRNA as percent of untreated control; 3-10-3 cEt gapmers targeting SEQ ID NO.: 1, and 2
How it was run: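 Free uptake, 2,000 nM, ~48 h, A-431 cells. Gapmers: 16-mer 3-10-3 cEt wings, PS backbone, 5-MeC. Readout qRT-PCR, RiboGreen-normalized, % UTC.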

Substance | Yap1 mRNA, % UTC (Yap1 mRNA [2]; 31.3 nM) [% UTC] | Yap1 mRNA, % UTC (Yap1 mRNA [2]; 125.0 nM) [% UTC] | Yap1 mRNA, % UTC (Yap1 mRNA [2]; 500.0 nM) [% UTC] | Yap1 mRNA, % UTC (Yap1 mRNA [2]; 2000.00 nM) [% UTC] | IC50 (Yap1 mRNA [2]) [µM] | % UTC (Yap1 mRNA) (Yap1 mRNA [3]; 31.3 nM) [% UTC] | % UTC (Yap1 mRNA) (Yap1 mRNA [3]; 125.0 nM) [% UTC] | % UTC (Yap1 mRNA) (Yap1 mRNA [3]; 500.0 nM) [% UTC] | % UTC (Yap1 mRNA) (Yap1 mRNA [3]; 2000.00 nM) [% UTC] | IC50 (Yap1 mRNA [3]) [µM] | further results
958686 (k[5mC]*kG*k[5mC]*dA*dA*dT*dA*dT*dA*dG*dT*d[5mC]*dT*kA*kT*kA; antisense) [compound 958686] |  |  |  |  |  |  |  |  |  |  | Yap1 mRNA, % UTC (Yap1 mRNA [1]; Table 57, 15.6 nM): 75 % UTC; Yap1 mRNA, % UTC (Yap1 mRNA [1]; Table 57, 62.5 nM): 69 % UTC; Yap1 mRNA, % UTC (Yap1 mRNA [1]; Table 57, 4000.00 nM): 18 % UTC; IC50 (Yap1 mRNA [1]; Table 57, A-431 cells 10,000 cells per well): 0.1 µM
958536 (kA*kG*kG*dG*dT*d[5mC]*dA*dA*dT*dT*dT*dT*d[5mC]*kA*kG*k[5mC]; antisense) [compound 958536] |  |  |  |  |  |  |  |  |  |  | Yap1 mRNA, % UTC (Yap1 mRNA [1]; Table 56, 15.6 nM): 94 % UTC; Yap1 mRNA, % UTC (Yap1 mRNA [1]; Table 56, 62.5 nM): 67 % UTC; Yap1 mRNA, % UTC (Yap1 mRNA [1]; Table 56, 4000.00 nM): 16 % UTC; IC50 (Yap1 mRNA [1]; Table 56, A-431 cells 10,000 cells per well): 0.14 µM
958558 (kT*kT*k[5mC]*dA*d[5mC]*dA*dA*d[5mC]*d[5mC]*dA*dA*d[5mC]*dT*kA*kT*kT; antisense) [compound 958558] |  |  |  |  |  |  |  |  |  |  | Yap1 mRNA, % UTC (Yap1 mRNA [1]; Table 60, 15.6 nM): 84 % UTC; Yap1 mRNA, % UTC (Yap1 mRNA [1]; Table 60, 62.5 nM): 83 % UTC; Yap1 mRNA, % UTC (Yap1 mRNA [1]; Table 60, 4000.00 nM): 35 % UTC; IC50 (Yap1 mRNA [1]; Table 60, A-431 cells 10,000 cells per well): 0.5 µM
1074728 (antisense kT*kG*kA*dG*dG*dT*dA*dT*dA*dA*d[5mC]*dT*dG*kG*kG*k[5mC]) [compound 1074728] | 28 | 7 | 4 | 4 | < 0.02 | 69 | 45 | 19 | 8 | 0.1 | 
1074464 (kT*kT*kA*dG*dA*dG*dT*dA*dT*dG*dT*dG*dG*k[5mC]*kA*kA) [compound 1074464] | 25 | 6 | 3 | 3 | < 0.02 | 109 | 50 | 19 | 6 | 0.2 | 
1074798 (kG*k[5mC]*kT*dT*dT*dG*dG*dA*dA*dG*dA*dT*d[5mC]*kT*kG*kA) [compound 1074798] | 34 | 12 | 5 | 6 | < 0.02 | 62 | 38 | 17 | 8 | 0.1 | YAP1 (% UTC) (Yap1 mRNA [4]): 4 % UTC
1198557 (kA*kT*kA*dT*dT*dA*dG*dA*dG*dT*dA*dT*kG*kT*kG*eG; antisense) [compound 1198557] |  |  |  |  |  | 81 | 52 | 26 | 11 | 0.2 | 
1198719 (kG*eG*kA*dA*dA*dT*dT*dG*dT*d[5mC]*dT*d[5mC]*eA*eT*kG*k[5mC]; antisense) [compound 1198719] |  |  |  |  |  | 67 | 30 | 9 | 3 | 0.1 | 
1198818 (kT*kA*dT*dT*dA*dG*dA*dG*dT*dA*dT*kG*eT*kG*eG*k[5mC]) [compound 1198818] |  |  |  |  |  | 68 | 33 | 15 | 5 | 0.1 | 
